According to ChEMBL document CHEMBL1201862, “PubChem BioAssay data set” (2004):
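Grown in 96-well plates, cells were treated for 48 hours with each compound at five concentrations. Insufficient inhibition: endpoint recorded as highest concentration tested. GI50 = concentration required for 50% inhibition of growth.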 Active and inactive are the calls of the source. No stated cut-off is given here; in the data, active = GI50 up to about 1.1 µM and inactive = higher.

Experiments:
Assay in all cases: NCI-60 cell line screen, 48 h
U-251 = tested on: U-251
RXF 631 = tested on: RXF 631
KM12 = tested on: KM12
CAKI-1 = tested on: CAKI-1
K562 = tested on: K562
EKVX = tested on: EKVX
HL-60 = tested on: HL-60
M14 = tested on: M14
SNB-19 = tested on: SNB-19
OVCAR-5 = tested on: OVCAR-5
DMS-273 = tested on: DMS-273
SW-620 = tested on: SW-620
RPMI-8226 = tested on: RPMI-8226
HCC 2998 = tested on: HCC 2998
NCI-H522 = tested on: NCI-H522
SF-268 = tested on: SF-268
OVCAR-3 = tested on: OVCAR-3
IGROV-1 = tested on: IGROV-1
LXFL 529 = tested on: LXFL 529
SK-MEL-2 = tested on: SK-MEL-2
HOP-62 = tested on: HOP-62
HT-29 = tested on: HT-29
COLO 205 = tested on: COLO 205
A549 = tested on: A549
TK-10 = tested on: TK-10
SN12C = tested on: SN12C
UO-31 = tested on: UO-31
HCT-116 = tested on: HCT-116
DMS-114 = tested on: DMS-114
786-0 = tested on: 786-0
A498 = tested on: A498
NCI-H460 = tested on: NCI-H460
ACHN = tested on: ACHN
OVCAR-4 = tested on: OVCAR-4
HCT-15 = tested on: HCT-15
NCI-H226 = tested on: NCI-H226
Malme-3M = tested on: Malme-3M
CCRF-CEM = tested on: CCRF-CEM
XF498 = tested on: XF498
SK-OV-3 = tested on: SK-OV-3
LOX IMVI = tested on: LOX IMVI
SF-295 = tested on: SF-295
SK-MEL-5 = tested on: SK-MEL-5
UACC-257 = tested on: UACC-257
NCI-H23 = tested on: NCI-H23
KM-20L2 = tested on: KM-20L2
OVCAR-8 = tested on: OVCAR-8
M19-MEL = tested on: M19-MEL
SNB-78 = tested on: SNB-78
UACC-62 = tested on: UACC-62
DLD-1 = tested on: DLD-1
SK-MEL-28 = tested on: SK-MEL-28
SNB-75 = tested on: SNB-75
MOLT-4 = tested on: MOLT-4
SF-539 = tested on: SF-539

Measured: GI50

CC(C)N(C(=O)C12C3C4C1C1C2C3C41C(=O)N(C(C)C)C(C)C)C(C)C (stereo not given)
> 50 µM: HCT-15
inactive: U-251 > 50 µM | RXF 631 > 50 µM | KM12 > 50 µM | CAKI-1 > 50 µM | K562 > 50 µM | EKVX > 50 µM | HL-60 > 50 µM | M14 > 50 µM | SNB-19 > 50 µM | OVCAR-5 > 50 µM | DMS-273 > 50 µM | SW-620 > 50 µM | RPMI-8226 > 50 µM | HCC 2998 > 50 µM | NCI-H522 > 50 µM | SF-268 > 50 µM | OVCAR-3 > 50 µM | IGROV-1 > 50 µM | LXFL 529 > 50 µM | SK-MEL-2 > 50 µM | HOP-62 > 50 µM | HT-29 > 50 µM | COLO 205 > 50 µM | A549 > 50 µM | TK-10 > 50 µM | SN12C > 50 µM | UO-31 > 50 µM | HCT-116 > 50 µM | DMS-114 > 50 µM | 786-0 > 50 µM | A498 > 50 µM | NCI-H460 > 50 µM | ACHN > 50 µM | OVCAR-4 > 50 µM | NCI-H226 > 50 µM | Malme-3M > 50 µM | CCRF-CEM > 50 µM | XF498 > 50 µM | SK-OV-3 > 50 µM | LOX IMVI > 50 µM | SF-295 > 50 µM | SK-MEL-5 > 50 µM | UACC-257 > 50 µM | NCI-H23 > 50 µM | KM-20L2 > 50 µM | OVCAR-8 > 50 µM | M19-MEL > 50 µM | SNB-78 > 50 µM | UACC-62 > 50 µM | DLD-1 > 50 µM | SK-MEL-28 > 50 µM | SNB-75 > 50 µM | MOLT-4 > 50 µM | SF-539 > 50 µM
